In patent US20080213223A1, “Systemic viral/ligand gene delivery system and gene therapy” (SynerGene Therapeutics, Inc., priority 1998, published 2008):

Experiments:
[1] = tested on: B16 mouse melanoma lung metastases; assay: B16 mouse melanoma lung metastases model with cisplatin; format: in vivo, C57/BL/6 mice; details: agent alone
Text: FIGS. 5A-H. Chemosensitization of B16 mouse lung metastases to cisplatin (CDDP) by systemically delivered, tumor-targeted adenoviral-p53. The metastases were induced in normal, syngeneic C57/Bl/6 mice by the intravenous injection of 1×10^5 cells. Four days later treatment was begun. Tf-Adp53 and control Tf-AdLacZ were produced at the ratio of 1.5×10^5 Tf molecules/virion. 1×10^10 viral particles/mouse/injection (equivalent to 3×10^8 pfu) of either Adp53, Tf-Adp53 or Tf-AdLacZ were i.v. administered 3 times/week to a total of 12-13 doses. CDDP was intraperitoneally injected at 3-5 mg/kg every 2-4 days for a total of 8-13 doses. The lungs were excised from the animals after one round of treatment. Lungs from animal treated with: No treatment (FIGS. 5A and 5E); CDDP alone (FIG. 5B); untargetted Ad-p53 plus CDDP (FIG. 5C); Tf-LacZ plus CDDP (FIG. 5F); Tf-Adp53 alone (FIG. 5G); Tf-Adp53 plus CDDP (FIGS. 5D and 5H).
The ability of the ligand-targeted, viral p53 delivery system to sensitize tumor cells to chemotherapy in an immune competent animal model was examined. The model chosen for these studies was the B16 mouse melanoma lung metastases model. In multiple experiments, B16 cells were injected, via the tail vein into immune-competent C57/BL/6 mice. In this model, tumor colonies in the lung are easily visible within two-three weeks, due to the expression of melanin by the tumor cells. […]

[2] = tested on: MDA-MB-435 xenograft tumors; assay: MDA-MB-435 xenograft tumor growth with docetaxel (Taxotere); format: in vivo, athymic nude (NCr nu-nu) mice; details: agent alone
Text: Additionally, since chemotherapy is often the treatment of choice for breast cancer, this experiment tested the ability of the delivery system of this invention to sensitize established human breast cancer xenograft tumors to the commonly used chemotherapeutic agent docetaxel (Taxotere). Xenografts were induced in 4-6 week old female athymic nude (NCr nu-nu) mice by the subcutaneous injection of 2.5×10^6 MDA-MB-435 cells in the mammary fat pad of each animal. Tumors were allowed to develop to a size of 40-50 mm^3. The targeted adenovirus, designated Tf Adp53, was prepared by mixing transferrin with adenovirus carrying DNA encoding wt p53 as described in Example 1. The animals were divided into five groups: (i) Untreated (−) Taxotere; (ii) Taxotere alone, (iii) Untargeted Adp53 (+) Taxotere; (iv) Targeted Adp53 (−) Taxotere; (v) Targeted Adp53 (+) Taxotere. The mice were i.v. injected, via the tail vein, every three to four days with 5×10^10 pt/mouse/injection of either targeted (an admixture of Tf ligand and virus was injected) or untargeted (no ligand) Adp53. A total of 12 injections were administered. The day after the initial viral injection, drug treatment was started. The animals were given Taxotere i.v. at a dose of 7.5 mg/kg every three or four days to a total of 11 injections. The tumor sizes were measured weekly in a blinded manner on a total of 6-8 tumors/group. […]

| Compound | effect on lung tumor colonies compared to untreated animals [1] | effect on tumor growth [2] |
| --- | --- | --- |
| [NH2][Pt]([NH2])([Cl])[Cl] [CDDP, cisplatin] | some effect |  |
| CC(=O)O[C@@]12CO[C@@H]1C[C@H](O)[C@@]1(C)C(=O)[C@H](O)C3=C(C)[C@@H](OC(=O)[C@H](O)[C@@H](NC(=O)OC(C)(C)C)c4ccccc4)C[C@@](O)([C@@H](OC(=O)c4ccccc4)[C@H]21)C3(C)C [Taxotere, docetaxel] |  | some growth inhibition |
